One experiment has as its system uterus. Kind of experiment: Uterotrophic assay (estrogenic activity from uterine weights). The format is in vivo, Sprague Dawley rats. Particulars: female rats, test compound alone once daily for 7 days, s.c. or oral gavage; uterine weight vs vehicle control. Further details: scale not given here. From the text:
B. Uterotrophic and antiuterotrophic assays
Sprague Dawley rates are obtained from Simmonsen Laboratories, Gilroy, Calif. Estradiol benzoate may be purchased from Sigma Chemical Co., St. Louis, Mo.
The procedure of Wakeling et al., Endocrinology 99:447453 (1983) is followed. Female Sprague Dawley rats weighing 40-50 grams are used for the experiment. In general, animals are quarantined for 3 days after arrival at the experimental site.
Rats are initially weighed and randomly divided into groups with 5 animals in each group. For the uterotrophic assay, animals are dosed once daily with various doses of test compounds in 0.1 or 1.0 ml of sterile saline via subcutaneous injection or oral gavage, respectively. For the antiuterotrophic assay, animals are dosed once daily with the same doses indicated above plus 0.5 μg/rat of estradiol benzoate alone.
The animals are treated for 7 days. On day 8, animals are weighed and then sacrificed. The uterus of each animal is removed immediately after death and weighed; fat materials are trimmed off prior to weighing.
A comparison of uterine weights from the groups receiving test compound alone with those of the vehicle control group gives the estrogenic activity. Antiestrogenic activity is obtained by comparing the uterine weights from the groups receiving test compound plus estradiol with those of the estradiol control group.

For the next experiment, the target named is T1, Estrone Sulfatase (Homo sapiens, UniProt P08842).
T1 construct: endogenous in cells; host or cells: MCF-7 human breast cancer cells (American Type Culture Collection)
T1 sequence (P08842 22-583): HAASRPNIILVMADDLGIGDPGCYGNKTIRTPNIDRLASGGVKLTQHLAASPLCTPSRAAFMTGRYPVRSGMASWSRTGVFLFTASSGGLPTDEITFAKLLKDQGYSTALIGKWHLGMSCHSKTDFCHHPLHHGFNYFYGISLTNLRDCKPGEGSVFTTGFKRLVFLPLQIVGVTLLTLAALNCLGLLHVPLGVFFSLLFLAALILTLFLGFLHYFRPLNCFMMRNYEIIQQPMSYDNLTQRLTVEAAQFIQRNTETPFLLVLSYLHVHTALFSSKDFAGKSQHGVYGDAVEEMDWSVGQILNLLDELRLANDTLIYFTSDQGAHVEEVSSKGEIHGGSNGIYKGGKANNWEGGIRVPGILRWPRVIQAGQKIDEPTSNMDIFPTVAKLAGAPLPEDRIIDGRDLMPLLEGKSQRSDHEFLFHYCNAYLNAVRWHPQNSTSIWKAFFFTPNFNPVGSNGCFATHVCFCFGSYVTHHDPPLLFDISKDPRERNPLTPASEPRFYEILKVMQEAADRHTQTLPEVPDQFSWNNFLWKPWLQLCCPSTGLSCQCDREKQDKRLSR
Kind of experiment: Effects of Inhibitors on Estrone Sulfatase Activity in MCF-7 Cells. Format: cell-based. From the text: A. Effects of Inhibitors on Estrone Sulfatase Activity in MCF-7 Cells
Reagents: MCF-7 human breast cancer cell line was supplied by the American Type Culture Collection, Rockville, MD. Eagle's minimum essential medium (MEM) and fetal calf serum (FCS) were purchased from Sigma Chemical Company, St. Louis, Mo. [4-^14 C]Estrone, [6,7-^3 H]estradiol and [6,7-^3 H](N)estrone sulfate were obtained from New England Nuclear Research Products, Boston, Mass.
Procedure: The method of Duncan et al., Cancer Res. 53:298-303 (1993) was employed. MCF-7 cells were seeded in 60 mm×15 mm culture dishes at 1×10^5 cells/dish and maintained in 4.0 ml of MEM containing 2 mM glutamine and 5% FCS. The cells were incubated at 37° C. in an atmosphere of 5% CO2 /95% air and 100% humidity, with the medium changed every third day. When the cells reached 80% confluency, the intact monolayers were washed once with Earl's balanced salt solution and incubated in 4.0 ml of serum and phenol re-free MEM containing either the substrate (^3 H-estrone sulfate, 7 pmol, 9×10^5 dpm) and inhibitor dissolved in ethanol, or ethanol alone. The fmal ethanol concentration was always below 1%. The incubation continued under the regular conditions for 24 h. At the end of 24 h, 2.0 ml of medium was transferred into separate tubes containing 7×10^3 dpm of ^14 C-estrone. The mixture was vortexed vigorously for 60 s with 5 ml of toluene. After phase separation, 2.0 ml of the organic phase was transferred into a counting vial for scintillation counting. The amount of estrone sulfate hydrolyzed was calculated on the basis of ^3 H counts obtained, with the added ^14 C-estrone counts used to correct for recovery through the extraction procedure.
The cells remaining in each culture dish were washed once with saline and then scraped with 1.0 ml of 0.5 N NaOH into 10×75 mm tubes. The cell pellets in each tube was incubated at 50° C. for 20 min to ensure that digestion was complete and all proteins had became soluble. An aliquot was then taken for protein determination by Lowry's method (Lowry et al., J. Biol. Chem. 193:265-275 (1951)).
The percentage of inhibition was determined by evaluating the quantity of estrone sulfate hydrolyzed with the inhibitor relative to that without the inhibitor.
As a general practice, all available inhibitors were first tested at 100 μM; the ones showing inhibitory effects at that concentration were tested again at various concentrations to obtain the IC50 values.

[1] abbreviates: intact MCF-7 human breast cancer cells, 3H-estrone sulfate substrate, 24 h, 37° C., read-out: Estrone Sulfatase Inhibitory Activity IC50.

Where two headings read alike, the source gives them in different places.

In the case of `CN(C)Cc1cc2c(cc1OS(N)(=O)=O)CC[C@@H]1[C@@H]2CC[C@]2(C)C(=O)CC[C@@H]12` [Compound 73, 2-Dimethylaminomethylestra-1,3,5(10)-trien-17-one-3-O-sulfamate], the “Estrogenic Activity” value in the experiment with uterus came to 0. Besides, on Estrone Sulfatase (setting [1]), the IC50 is more than 1000 nM.
`COCc1cc2c(cc1OS(N)(=O)=O)CC[C@@H]1[C@@H]2CC[C@]2(C)C(=O)CC[C@@H]12` [Compound 75, 2-Methoxymethylestra-1,3,5(10)-trien-17-one-3-O-sulfamate]: the “Estrogenic Activity” value with uterus came to 0. For the same molecule, the IC50 on Estrone Sulfatase (setting [1]) was 2 nM.
The matching figures for `C[C@]12CC[C@@H]3c4ccc(OS(N)(=O)=O)c([N+](=O)[O-])c4CC[C@H]3[C@@H]1CCC2=O` [Compound 77, 4-Nitroestra-1,3,5(10)-trien-17-one-3-O-sulfamate]: 0 and less than 10 nM.
For `C[C@]12CC[C@@H]3c4cc([N+](=O)[O-])c(OS(N)(=O)=O)cc4CC[C@H]3[C@@H]1CCC2=O` [Compound 78, 2-Nitroestra-1,3,5(10)-trien-17-one-3-O-sulfamate], in the experiment on uterus, the “Estrogenic Activity” value amounted to 0. Besides, the IC50 against Estrone Sulfatase was determined as 7 nM.
`CN(C)c1cc2c(cc1OS(N)(=O)=O)CC[C@@H]1[C@@H]2CC[C@]2(C)C(=O)CC[C@@H]12` [Compound 83, 2-Dimethylaminoestra-1,3,5(10)-trien-17-one-3-O-sulfamate]: in the experiment with uterus, the “Estrogenic Activity” value stood at 0. Besides, the concentration for half-maximal inhibition (IC50) on Estrone Sulfatase (setting [1]) stood at 270 nM.
Take `CN(C)c1c(OS(N)(=O)=O)ccc2c1CC[C@@H]1[C@@H]2CC[C@]2(C)C(=O)CC[C@@H]12` [Compound 88, 4-Dimethylaminoestra-1,3,5(10)-trien-17-one-3-O-sulfamate]: the “Estrogenic Activity” value in the experiment on uterus was 0. Also, the IC50 at Estrone Sulfatase (setting [1]) came out at 515 nM.
Regarding `CC(=O)Nc1cc2c(cc1OS(N)(=O)=O)CC[C@@H]1[C@@H]2CC[C@]2(C)C(=O)CC[C@@H]12` [Compound 93, 2-Acetoamideestra-1,3,5(10)-trien-17-one-3-O-sulfamate], the “Estrogenic Activity” value in the experiment on uterus was found to be 0.02. Also, at Estrone Sulfatase (setting [1]), the IC50 came to 410 nM.
For `CC(=O)Nc1c(OS(N)(=O)=O)ccc2c1CC[C@@H]1[C@@H]2CC[C@]2(C)C(=O)CC[C@@H]12` [Compound 96, 4-Acetoamideestra-1,3,5(10)-trien-17-one-3-O-sulfamate], in the experiment with uterus, the “Estrogenic Activity” value is on record as 0. Besides, the IC50 at Estrone Sulfatase (setting [1]) was found to be 290 nM.
Take `CC12CC(=O)C3=Cc4ccc(OS(N)(=O)=O)cc4CCC3C1CCC2=O` (stereo not drawn) [Compound 99, β-Homo-9-(10-19)-abeoestra-1,3,5(10),9(19)-tetraen-11,17-dione-3-O-sulfamate]: in the experiment with uterus, the “Estrogenic Activity” value is 0. Also, the IC50 at Estrone Sulfatase (setting [1]) was 26 nM.
